Results on 7 compounds are retold here after ChEMBL document CHEMBL1201862, “PubChem BioAssay data set” (2004).

Usually IC50 stands for the midpoint of a concentration-inhibition curve. For orientation: Ki means a measure of affinity in units of concentration, obtained from inhibition or displacement.

What all share (type): functional
Test [1] addresses T1, Caspase-3 (Homo sapiens, UniProt P42574).
T1 sequence (P42574 whole entry): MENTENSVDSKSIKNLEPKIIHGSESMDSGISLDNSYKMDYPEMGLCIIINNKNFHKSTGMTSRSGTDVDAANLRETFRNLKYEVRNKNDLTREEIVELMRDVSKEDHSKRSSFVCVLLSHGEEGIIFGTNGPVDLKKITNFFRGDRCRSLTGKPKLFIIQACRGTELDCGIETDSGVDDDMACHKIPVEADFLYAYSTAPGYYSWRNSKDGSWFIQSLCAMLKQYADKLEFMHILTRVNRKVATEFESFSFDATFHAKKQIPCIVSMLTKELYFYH

Test [2] has as its target T2, Sentrin-specific protease 6 (Homo sapiens, UniProt Q9GZR1).
T2 sequence (Q9GZR1 whole entry): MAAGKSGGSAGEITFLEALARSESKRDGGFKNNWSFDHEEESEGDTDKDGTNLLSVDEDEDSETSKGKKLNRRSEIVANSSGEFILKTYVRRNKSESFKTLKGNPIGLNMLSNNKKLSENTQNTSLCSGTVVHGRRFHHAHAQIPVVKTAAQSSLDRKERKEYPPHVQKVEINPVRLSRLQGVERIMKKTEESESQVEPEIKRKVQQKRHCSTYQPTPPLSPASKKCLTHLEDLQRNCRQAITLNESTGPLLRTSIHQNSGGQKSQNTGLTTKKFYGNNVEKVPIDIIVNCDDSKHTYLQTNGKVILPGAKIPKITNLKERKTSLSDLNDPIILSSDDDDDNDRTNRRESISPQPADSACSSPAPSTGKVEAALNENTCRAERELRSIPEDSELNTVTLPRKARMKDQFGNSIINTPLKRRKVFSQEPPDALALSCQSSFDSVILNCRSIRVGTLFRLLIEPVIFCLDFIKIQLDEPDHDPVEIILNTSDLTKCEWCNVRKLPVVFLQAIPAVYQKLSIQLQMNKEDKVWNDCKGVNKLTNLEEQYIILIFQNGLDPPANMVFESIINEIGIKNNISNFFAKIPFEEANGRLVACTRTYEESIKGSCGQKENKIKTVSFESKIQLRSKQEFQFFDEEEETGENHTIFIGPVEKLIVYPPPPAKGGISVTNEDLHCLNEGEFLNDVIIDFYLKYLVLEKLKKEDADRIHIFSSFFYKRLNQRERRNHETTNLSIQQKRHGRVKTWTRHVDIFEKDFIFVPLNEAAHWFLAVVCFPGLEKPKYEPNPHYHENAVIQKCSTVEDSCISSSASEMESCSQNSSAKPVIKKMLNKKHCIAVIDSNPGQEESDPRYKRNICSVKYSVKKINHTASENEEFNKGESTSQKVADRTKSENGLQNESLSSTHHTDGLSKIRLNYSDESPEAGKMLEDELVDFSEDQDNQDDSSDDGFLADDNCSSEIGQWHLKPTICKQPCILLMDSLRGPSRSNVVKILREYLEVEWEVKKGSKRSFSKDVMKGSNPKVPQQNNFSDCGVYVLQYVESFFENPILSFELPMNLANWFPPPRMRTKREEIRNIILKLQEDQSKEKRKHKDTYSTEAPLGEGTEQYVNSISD
As to the kind of experiment: SAR Analysis of small molecule inhibitors of Sentrin-specific protease 6 (SENP6) using a Luminescent assay. [Related pubchem assays (depositor defined):AID2582, AID2599].

For test [3], the target named is SUMO-activating enzyme (Homo sapiens, UniProt Q9UBT2). Description: SUMOylation inhibitor hit validation, confirmation, SUMOylation inhibitor project, biochemical, AlphaScreen (AID 2018).
The target of test [4] is High affinity nerve growth factor receptor (Homo sapiens, UniProt P04629).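 Further: NTRK1 tested as one member of a kinome-wide profiling panel.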
Test [5] has as its target Hepatocyte growth factor receptor (Homo sapiens, UniProt P08581).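 Further: kinase panel profiling across the kinome, with MET as the panel member.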
Test [6] concerns the target Dual specificity mitogen-activated protein kinase kinase 2 (Homo sapiens, UniProt P36507). As to the kind of experiment: Navigating the Kinome. Panel member name: MAP2K2.
Test [7] addresses Macrophage colony-stimulating factor 1 receptor (Homo sapiens, UniProt P07333).
Test [8] addresses Tyrosine-protein kinase Fyn (Homo sapiens, UniProt P06241).
Test [9] has as its target Serine/threonine-protein kinase PAK 4 (Homo sapiens, UniProt O96013).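 Further: value obtained within a kinome profiling panel in which PAK4 was one of the panel members.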
For test [10], the target named is Fibroblast growth factor receptor 1 (Homo sapiens, UniProt P11362).
Test [11] addresses LIM domain kinase 1 (Homo sapiens, UniProt P53667). Description: Navigating the Kinome. Panel member name: LIMK1.
Test [12] deals with T3, Mitogen-activated protein kinase kinase kinase kinase 2 (Homo sapiens, UniProt Q12851).
T3 sequence (Q12851 whole entry): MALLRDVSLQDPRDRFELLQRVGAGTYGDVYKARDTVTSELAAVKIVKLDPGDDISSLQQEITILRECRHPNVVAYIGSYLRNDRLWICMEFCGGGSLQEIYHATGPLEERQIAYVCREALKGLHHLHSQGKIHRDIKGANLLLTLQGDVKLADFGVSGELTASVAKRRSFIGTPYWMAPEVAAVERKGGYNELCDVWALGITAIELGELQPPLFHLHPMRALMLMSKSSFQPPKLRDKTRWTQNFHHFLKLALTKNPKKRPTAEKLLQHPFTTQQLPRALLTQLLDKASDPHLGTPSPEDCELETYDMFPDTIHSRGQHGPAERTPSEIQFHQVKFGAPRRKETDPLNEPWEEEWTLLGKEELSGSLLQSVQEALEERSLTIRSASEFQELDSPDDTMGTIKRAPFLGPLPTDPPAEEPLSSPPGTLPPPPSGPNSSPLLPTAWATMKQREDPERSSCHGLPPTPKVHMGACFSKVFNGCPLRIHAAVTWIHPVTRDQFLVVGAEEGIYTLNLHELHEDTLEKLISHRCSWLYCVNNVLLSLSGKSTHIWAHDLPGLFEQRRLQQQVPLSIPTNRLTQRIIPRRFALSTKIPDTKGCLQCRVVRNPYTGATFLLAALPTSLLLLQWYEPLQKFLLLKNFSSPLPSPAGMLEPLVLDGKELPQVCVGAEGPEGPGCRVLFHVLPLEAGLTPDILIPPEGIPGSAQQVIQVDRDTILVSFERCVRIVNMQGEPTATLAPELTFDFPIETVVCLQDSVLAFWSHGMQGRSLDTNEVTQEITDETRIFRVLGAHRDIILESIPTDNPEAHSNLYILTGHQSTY

Test [13] has as its target Mitogen-activated protein kinase kinase kinase kinase 4 (Homo sapiens, UniProt O95819).
The target of test [14] is Cyclin-dependent kinase 19 (Homo sapiens, UniProt Q9BWU1). As to the kind of experiment: Navigating the Kinome. Panel member name: CDC2L6.
Test [15] has as its target Cyclin-dependent kinase 8 (Homo sapiens, UniProt P49336). As to the kind of experiment: Navigating the Kinome. Panel member name: CDK8.

Activity calls are given as the source filed them.

Dual specificity mitogen-activated protein kinase kinase 2, sequence (P36507 whole entry): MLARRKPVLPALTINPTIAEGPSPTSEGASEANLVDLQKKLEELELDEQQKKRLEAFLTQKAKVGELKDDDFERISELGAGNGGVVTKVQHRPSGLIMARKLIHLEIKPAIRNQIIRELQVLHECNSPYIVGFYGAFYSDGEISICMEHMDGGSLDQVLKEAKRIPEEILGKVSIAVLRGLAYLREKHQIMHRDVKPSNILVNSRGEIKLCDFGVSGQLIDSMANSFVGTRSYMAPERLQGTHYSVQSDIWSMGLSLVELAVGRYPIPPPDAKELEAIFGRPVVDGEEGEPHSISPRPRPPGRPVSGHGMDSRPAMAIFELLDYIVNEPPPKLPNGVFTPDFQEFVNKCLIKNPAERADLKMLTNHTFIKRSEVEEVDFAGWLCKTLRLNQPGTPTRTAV
Cyclin-dependent kinase 8, sequence (P49336 whole entry): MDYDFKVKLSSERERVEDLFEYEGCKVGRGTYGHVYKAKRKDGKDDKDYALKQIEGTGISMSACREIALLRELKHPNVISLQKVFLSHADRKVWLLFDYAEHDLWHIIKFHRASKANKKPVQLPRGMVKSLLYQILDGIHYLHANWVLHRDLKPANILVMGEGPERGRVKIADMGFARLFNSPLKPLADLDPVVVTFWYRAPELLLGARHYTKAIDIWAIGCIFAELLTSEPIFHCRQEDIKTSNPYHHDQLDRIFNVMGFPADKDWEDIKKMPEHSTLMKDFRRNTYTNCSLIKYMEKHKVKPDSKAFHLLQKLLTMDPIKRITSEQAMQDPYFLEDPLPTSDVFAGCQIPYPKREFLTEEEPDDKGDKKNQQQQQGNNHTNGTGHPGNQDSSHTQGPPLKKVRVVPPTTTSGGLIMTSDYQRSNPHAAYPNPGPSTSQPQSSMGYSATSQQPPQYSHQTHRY
Fibroblast growth factor receptor 1, sequence (P11362 whole entry, the tested form may be a part): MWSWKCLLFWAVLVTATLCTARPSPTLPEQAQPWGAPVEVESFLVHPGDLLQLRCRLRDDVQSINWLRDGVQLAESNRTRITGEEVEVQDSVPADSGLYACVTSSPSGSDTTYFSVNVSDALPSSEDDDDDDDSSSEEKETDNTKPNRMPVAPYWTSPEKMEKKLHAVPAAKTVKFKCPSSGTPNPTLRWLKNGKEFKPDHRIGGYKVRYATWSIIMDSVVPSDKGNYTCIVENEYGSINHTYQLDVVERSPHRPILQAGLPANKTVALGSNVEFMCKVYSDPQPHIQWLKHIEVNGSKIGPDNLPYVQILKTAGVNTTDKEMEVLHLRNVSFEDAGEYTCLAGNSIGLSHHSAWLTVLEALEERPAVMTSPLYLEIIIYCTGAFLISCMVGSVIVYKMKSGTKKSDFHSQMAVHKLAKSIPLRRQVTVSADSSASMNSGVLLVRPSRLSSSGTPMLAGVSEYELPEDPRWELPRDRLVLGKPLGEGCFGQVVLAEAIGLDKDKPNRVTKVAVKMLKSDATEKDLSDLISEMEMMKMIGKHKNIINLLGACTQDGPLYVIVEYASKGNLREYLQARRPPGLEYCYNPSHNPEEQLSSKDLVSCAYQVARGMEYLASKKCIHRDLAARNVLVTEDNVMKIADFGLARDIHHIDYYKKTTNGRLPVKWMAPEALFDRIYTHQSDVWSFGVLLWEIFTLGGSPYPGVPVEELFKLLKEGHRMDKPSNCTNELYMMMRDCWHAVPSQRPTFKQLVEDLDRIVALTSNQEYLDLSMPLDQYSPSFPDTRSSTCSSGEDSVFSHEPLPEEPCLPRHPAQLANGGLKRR
Mitogen-activated protein kinase kinase kinase kinase 4, sequence (O95819 whole entry): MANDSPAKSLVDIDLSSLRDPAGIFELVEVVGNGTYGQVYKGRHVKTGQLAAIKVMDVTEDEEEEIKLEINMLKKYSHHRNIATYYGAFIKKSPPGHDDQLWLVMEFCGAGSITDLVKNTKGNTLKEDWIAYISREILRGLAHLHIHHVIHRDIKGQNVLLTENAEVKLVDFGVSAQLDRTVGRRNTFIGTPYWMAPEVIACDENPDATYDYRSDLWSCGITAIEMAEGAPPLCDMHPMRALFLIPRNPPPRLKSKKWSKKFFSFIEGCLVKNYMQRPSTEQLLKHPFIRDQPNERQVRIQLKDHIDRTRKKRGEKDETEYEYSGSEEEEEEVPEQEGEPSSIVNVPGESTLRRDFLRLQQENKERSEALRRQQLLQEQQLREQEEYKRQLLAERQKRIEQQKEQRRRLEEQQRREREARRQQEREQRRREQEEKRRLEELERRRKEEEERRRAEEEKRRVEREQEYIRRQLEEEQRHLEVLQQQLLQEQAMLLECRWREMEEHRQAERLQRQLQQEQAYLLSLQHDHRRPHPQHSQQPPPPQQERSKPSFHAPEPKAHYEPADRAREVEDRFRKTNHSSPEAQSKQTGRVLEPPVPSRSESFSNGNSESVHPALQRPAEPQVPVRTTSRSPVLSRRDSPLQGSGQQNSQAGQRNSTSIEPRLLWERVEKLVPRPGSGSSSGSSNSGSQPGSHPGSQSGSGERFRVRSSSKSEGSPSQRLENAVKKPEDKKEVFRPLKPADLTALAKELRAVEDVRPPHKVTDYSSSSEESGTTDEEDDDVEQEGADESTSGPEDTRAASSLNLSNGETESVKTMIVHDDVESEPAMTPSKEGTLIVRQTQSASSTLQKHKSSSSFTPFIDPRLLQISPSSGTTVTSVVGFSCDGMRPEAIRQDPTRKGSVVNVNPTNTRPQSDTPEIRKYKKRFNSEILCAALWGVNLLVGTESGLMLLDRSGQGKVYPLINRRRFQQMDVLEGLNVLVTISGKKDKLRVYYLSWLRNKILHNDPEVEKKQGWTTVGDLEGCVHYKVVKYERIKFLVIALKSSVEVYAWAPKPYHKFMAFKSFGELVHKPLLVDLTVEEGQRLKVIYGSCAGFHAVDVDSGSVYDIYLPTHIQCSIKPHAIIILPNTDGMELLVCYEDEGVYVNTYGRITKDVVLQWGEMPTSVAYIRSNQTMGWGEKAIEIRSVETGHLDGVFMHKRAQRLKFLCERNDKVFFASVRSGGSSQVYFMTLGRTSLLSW
LIM domain kinase 1, sequence (P53667 whole entry, the tested form may be a part): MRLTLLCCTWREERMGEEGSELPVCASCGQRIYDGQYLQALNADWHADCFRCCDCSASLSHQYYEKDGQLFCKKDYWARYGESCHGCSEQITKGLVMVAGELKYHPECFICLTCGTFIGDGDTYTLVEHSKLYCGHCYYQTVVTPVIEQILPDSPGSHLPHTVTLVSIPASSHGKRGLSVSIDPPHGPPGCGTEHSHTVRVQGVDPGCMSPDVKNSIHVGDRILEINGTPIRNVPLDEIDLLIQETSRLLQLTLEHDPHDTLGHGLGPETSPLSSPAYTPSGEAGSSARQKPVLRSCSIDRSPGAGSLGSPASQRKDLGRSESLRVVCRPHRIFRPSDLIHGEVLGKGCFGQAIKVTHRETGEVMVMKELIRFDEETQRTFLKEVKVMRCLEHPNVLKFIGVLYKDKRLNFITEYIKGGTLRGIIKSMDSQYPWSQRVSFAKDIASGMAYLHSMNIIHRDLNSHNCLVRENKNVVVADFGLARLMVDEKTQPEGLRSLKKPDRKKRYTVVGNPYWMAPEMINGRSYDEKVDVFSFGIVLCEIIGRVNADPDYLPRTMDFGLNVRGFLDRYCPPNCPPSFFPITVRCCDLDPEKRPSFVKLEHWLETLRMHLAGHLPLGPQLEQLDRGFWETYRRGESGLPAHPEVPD
Hepatocyte growth factor receptor, sequence (P08581 whole entry): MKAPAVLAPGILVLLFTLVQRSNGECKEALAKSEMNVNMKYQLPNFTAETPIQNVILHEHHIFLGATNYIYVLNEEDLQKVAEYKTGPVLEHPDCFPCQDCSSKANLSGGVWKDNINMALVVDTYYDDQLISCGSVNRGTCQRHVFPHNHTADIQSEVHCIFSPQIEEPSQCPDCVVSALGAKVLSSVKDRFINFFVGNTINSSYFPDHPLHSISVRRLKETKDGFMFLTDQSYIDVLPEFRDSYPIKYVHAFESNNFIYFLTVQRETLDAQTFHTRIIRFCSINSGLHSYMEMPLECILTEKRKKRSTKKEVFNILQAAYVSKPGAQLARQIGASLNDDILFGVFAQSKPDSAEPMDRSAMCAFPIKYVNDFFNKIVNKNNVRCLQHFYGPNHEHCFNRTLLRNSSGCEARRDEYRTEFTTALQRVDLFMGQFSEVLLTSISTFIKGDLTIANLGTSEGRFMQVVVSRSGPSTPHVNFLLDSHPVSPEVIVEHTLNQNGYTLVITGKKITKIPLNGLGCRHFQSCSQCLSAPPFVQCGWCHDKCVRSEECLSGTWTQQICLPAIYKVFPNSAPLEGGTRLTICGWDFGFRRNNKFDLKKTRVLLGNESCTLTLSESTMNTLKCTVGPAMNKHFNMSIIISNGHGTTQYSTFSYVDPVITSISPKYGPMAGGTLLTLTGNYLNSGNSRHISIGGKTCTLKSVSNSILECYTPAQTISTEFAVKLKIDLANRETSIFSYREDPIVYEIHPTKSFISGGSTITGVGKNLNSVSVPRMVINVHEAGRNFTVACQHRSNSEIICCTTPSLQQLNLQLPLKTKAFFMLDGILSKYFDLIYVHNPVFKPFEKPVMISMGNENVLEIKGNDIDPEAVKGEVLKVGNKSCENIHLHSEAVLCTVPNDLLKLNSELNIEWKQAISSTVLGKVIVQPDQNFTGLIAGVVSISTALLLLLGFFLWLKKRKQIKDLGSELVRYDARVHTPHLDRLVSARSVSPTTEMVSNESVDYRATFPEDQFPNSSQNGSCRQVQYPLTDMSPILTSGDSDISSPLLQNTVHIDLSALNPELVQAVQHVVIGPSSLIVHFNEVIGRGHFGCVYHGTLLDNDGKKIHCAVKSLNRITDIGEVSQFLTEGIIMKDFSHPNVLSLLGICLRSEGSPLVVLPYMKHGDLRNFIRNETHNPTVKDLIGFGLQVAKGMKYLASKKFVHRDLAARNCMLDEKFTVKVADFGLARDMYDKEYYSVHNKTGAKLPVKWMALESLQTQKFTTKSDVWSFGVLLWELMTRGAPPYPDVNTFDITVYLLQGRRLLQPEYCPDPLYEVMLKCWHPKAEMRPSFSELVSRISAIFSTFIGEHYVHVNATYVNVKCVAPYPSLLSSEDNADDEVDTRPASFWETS

As for `O=C(NC1=C(Nc2ccc(F)cc2)C(=O)c2ccccc2C1=O)c1ccc(Cl)cc1`, in test [1], the IC50 was 19 µM (active).
Consider `COc1cc2cc(NC(C)=O)cc(NCc3ccccc3)c2cc1OC`, for which the IC50 in [2] was 40.4 µM (active).
Regarding `Oc1nc(Nc2ccc(F)cc2)cc2ccccc12`, the IC50 in test [1] was 4.77 µM (active); in [3], 1.12 µM (active).
Turning to `CN(C)c1cc(N/N=C\c2ccccc2)nc(N(C)C)n1`, the IC50 in test [1] is > 100 µM (inactive); in test [3] it was 1.6 µM (active); in test [2] it was 11.3 µM (active).
Turning to `O=C1Nc2cc(-c3ccc(O)cc3)ccc2C1=Cc1ccc[nH]1`, the Ki in test [4] was 2 µM (active); in test [5] it was 2.51 µM (active); in test [6], > 3.98 µM (inactive); in test [7], 1.26 µM (active); in test [8], > 6.31 µM (inactive); in test [9] it was > 5.01 µM (inactive). Moreover, the Ki in test [10] was 1.26 µM (active); in test [11], 2.51 µM (active); in test [12] it was 0.0316 µM (active); in test [13] it was 0.02 µM (active); in test [14], > 100 µM (inactive); in [15], > 3.98 µM (inactive).
As to `NC(COc1cncc(-c2ccc3c(c2)C(=Cc2ccc[nH]2)C(=O)N3)c1)Cc1ccccc1` (centres undefined), the Ki in test [4] was 0.0631 µM (active); in test [5], 0.316 µM (active); in test [6], 0.316 µM (active); in [7], 0.631 µM (active); in test [8], 0.398 µM (active); in [9], 0.0316 µM (active). For the same compound, the Ki is 0.126 µM (active) in test [10]; 0.501 µM (active) in test [11]; 0.0158 µM (active) in [12]; 0.00501 µM (active) in test [13]; 1.58 µM (active) in [15].
Turning to `O=C1Cc2cc(-c3ccccc3)cnc2N1`, the Ki in test [5] is 25.1 µM (active); in test [6], 50.1 µM (active); in test [7] it was 63.1 µM (active); in test [10], 50.1 µM (active); in test [11], 63.1 µM (active); in test [12], 31.6 µM (active). For the same compound, the figures for the Ki in [13], in [14] and in [15] were 79.4 µM (active), > 100 µM (inactive) and 25.1 µM (active), respectively.
